Source: article PMC9020084 (iScience, 2022)

Assays:
Assay type in all cases: biochemical
SHIP2-Enz (S2-Enz) = biological target: T1, SHIP2-Enz (S2-Enz) (Homo sapiens, UniProt O15357); test: fluorescence polarization PI
T1 sequence (O15357 414-872): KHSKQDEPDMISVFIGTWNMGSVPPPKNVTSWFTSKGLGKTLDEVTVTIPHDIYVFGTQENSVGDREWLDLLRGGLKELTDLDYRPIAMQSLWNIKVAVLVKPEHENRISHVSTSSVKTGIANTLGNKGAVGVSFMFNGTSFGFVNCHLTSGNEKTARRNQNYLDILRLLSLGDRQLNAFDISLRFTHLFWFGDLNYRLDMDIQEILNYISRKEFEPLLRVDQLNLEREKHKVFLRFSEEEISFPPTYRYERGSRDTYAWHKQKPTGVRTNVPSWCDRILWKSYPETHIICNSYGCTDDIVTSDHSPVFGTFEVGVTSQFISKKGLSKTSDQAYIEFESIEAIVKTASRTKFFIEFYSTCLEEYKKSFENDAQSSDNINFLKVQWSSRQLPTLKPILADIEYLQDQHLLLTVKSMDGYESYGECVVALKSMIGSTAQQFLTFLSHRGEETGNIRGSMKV

SHIP1-Enz (S1-Enz) = biological target: T2, SHIP1-Enz (S1-Enz) (Homo sapiens, UniProt Q92835); test: fluorescence polarization PI
T2 sequence (Q92835 397-864): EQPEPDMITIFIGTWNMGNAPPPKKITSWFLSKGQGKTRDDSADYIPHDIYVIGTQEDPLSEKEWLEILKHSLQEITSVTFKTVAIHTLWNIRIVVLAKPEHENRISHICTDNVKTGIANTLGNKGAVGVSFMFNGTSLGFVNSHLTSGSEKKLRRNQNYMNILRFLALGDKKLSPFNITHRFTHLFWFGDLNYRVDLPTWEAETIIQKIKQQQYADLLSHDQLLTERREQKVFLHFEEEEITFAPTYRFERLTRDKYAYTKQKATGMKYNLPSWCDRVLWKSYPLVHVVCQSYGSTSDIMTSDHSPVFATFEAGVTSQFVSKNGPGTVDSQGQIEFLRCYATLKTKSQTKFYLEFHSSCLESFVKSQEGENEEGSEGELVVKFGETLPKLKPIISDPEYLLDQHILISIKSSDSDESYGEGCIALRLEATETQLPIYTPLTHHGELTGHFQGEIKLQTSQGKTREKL

SHIP1ΔC2 (S1ΔC2) = biological target: T3, SHIP1ΔC2 (S1ΔC2) (Homo sapiens, UniProt Q92835); test: malachite green phosphate release; conditions: agonist (activation); C2 domain deleted
T3 sequence (Q92835 397-730): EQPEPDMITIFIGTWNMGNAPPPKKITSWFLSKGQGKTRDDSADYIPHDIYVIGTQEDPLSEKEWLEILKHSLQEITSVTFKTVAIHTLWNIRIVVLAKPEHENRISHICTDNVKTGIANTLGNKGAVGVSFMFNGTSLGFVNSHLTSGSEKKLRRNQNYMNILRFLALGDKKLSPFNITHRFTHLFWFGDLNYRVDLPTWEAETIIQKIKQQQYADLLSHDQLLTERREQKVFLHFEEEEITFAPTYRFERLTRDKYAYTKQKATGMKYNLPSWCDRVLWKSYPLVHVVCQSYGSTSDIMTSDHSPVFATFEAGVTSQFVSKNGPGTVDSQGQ

In the case of Cc1sc(S(=O)(=O)N2CCSCC2)cc1NC(=O)CNS(=O)(=O)c1ccc(F)cc1 [compound 8, K306], the EC50 (SHIP2-Enz (S2-Enz)) is reported as 1170 nM, the EC50 (SHIP1-Enz (S1-Enz)) is reported as 119 nM and the “malachite green phosphate release” value (SHIP1ΔC2 (S1ΔC2)) is reported as “K306 retained significant agonistic activity for SHIP1ΔC2”.
